ChEMBL document CHEMBL2375327, “Carbonic anhydrase inhibitors: inhibition of the β-class enzyme from the pathogenic yeast Candida glabrata with sulfonamides, sulfamates and sulfamides” (Bioorg Med Chem Lett, 2013)

Experiments:
Carbonic anhydrase [1] = biological target: T1, Carbonic anhydrase (Candida glabrata CBS 138, UniProt Q6FTL6); design: species or system Nakaseomyces glabratus
T1 sequence (Q6FTL6 whole entry): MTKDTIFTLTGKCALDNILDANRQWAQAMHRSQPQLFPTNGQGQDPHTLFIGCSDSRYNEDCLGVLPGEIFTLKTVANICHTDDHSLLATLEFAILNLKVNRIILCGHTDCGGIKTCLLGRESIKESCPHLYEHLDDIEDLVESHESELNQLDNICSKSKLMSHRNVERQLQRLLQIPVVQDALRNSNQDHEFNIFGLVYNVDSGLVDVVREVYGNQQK

Carbonic anhydrase [2] = biological target: T2, Carbonic anhydrase (Candida albicans (strain SC5314 / ATCC MYA-2876) (Yeast), UniProt Q5AJ71)
T2 sequence (Q5AJ71 whole entry): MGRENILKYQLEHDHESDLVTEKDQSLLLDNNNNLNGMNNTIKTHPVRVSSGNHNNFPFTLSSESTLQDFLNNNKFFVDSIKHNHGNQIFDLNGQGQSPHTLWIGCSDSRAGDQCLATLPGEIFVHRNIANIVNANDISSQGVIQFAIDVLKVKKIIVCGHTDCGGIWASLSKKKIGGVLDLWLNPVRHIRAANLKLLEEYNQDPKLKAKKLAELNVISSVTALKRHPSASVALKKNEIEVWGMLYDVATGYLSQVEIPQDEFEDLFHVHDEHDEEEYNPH

[3] = Selectivity ratio of Ki for human carbonic anhydrase-2 to Ki for recombinant full length Candida glabrata NCE103
Carbonic anhydrase 2 = Carbonic anhydrase 2 (Homo sapiens, UniProt P00918); test: Inhibition of human carbonic anhydrase-2 preincubated for 15 mins by stopped-flow CO2 hydrase assay

Structure (SMILES) | Ki (Carbonic anhydrase [1]; read-out: Ki) [µM] | Ki (Carbonic anhydrase [2]) [µM] | other results
NS(=O)(=O)c1nnc(NS(=O)(=O)c2ccccc2)s1 [BENZOLAMIDE] | 0.952 |  | 
Cc1ccc(-c2cc(C(F)(F)F)nn2-c2ccc(S(N)(=O)=O)cc2)cc1 [CELECOXIB] | 0.116 |  | 
NCCc1ccc(S(N)(=O)=O)cc1 | 0.55 |  | 
NS(=O)(=O)Nc1ccc(NC(=O)NC2CCCCC2)cc1 | 0.0801 | 0.134 | 
Cc1onc(-c2ccccc2)c1-c1ccc(S(N)(=O)=O)cc1 [VALDECOXIB] | 0.097 |  | 
Nc1nnc(S(N)(=O)=O)s1 | 0.095 |  | 
N#Cc1ccccc1NC(=O)Nc1ccc(OS(N)(=O)=O)cc1 | 0.089 | 0.156 | 
NCc1ccc(S(N)(=O)=O)cc1 [MAFENIDE] | 0.865 |  | 
CCOc1ccc2nc(S(N)(=O)=O)sc2c1 [ETHOXZOLAMIDE] | 3.13 |  | 
Nc1cc(Cl)c(S(N)(=O)=O)cc1S(N)(=O)=O | 0.086 |  | 
NS(=O)(=O)Nc1ccc(NC(=O)NCc2ccccc2)cc1 | 0.0243 | 0.146 | 
NS(=O)(=O)c1ccc(NC(=O)Nc2ccc(Br)cc2)cc1 | 0.0054 |  | 
Nc1ccc(S(N)(=O)=O)cc1Br | 0.109 |  | 
NS(=O)(=O)Oc1ccc(NC(=O)Nc2ccc(C(F)(F)F)c(C(F)(F)F)c2C(F)(F)F)cc1 | 0.0058 | 0.076 | 
NS(=O)(=O)Oc1ccc(NC(=O)NCCc2ccccc2)cc1 | 0.0075 | 0.133 | 
NS(=O)(=O)c1ccc(NC(=O)Nc2ccccc2)cc1 | 0.073 |  | 
Cn1nc(S(N)(=O)=O)sc1=N | 0.786 |  | 
NS(=O)(=O)Nc1ccc(NC(=O)Nc2ccccc2-c2ccccc2)cc1 | 0.0067 | 0.072 | 
NS(=O)(=O)Nc1ccc(NC(=O)Nc2ccc(Cl)cc2)cc1 | 0.0055 | 0.102 | Ratio Ki [3]: 57
CC1(C)O[C@@H]2[C@@H](CO[C@@]3(COS(N)(=O)=O)OC(C)(C)O[C@@H]23)O1 [TOPIRAMATE] | 0.11 |  | 
NS(=O)(=O)c1ccc(CO)cc1 | 0.061 |  | 
NS(=O)(=O)Oc1ccc(NC(=O)Nc2ccc3c(c2)Cc2ccccc2-3)cc1 | 0.115 | 0.076 | 
NS(=O)(=O)Nc1ccc(NC(=O)NCc2ccco2)cc1 | 0.0241 | 0.058 | 
NS(=O)(=O)Oc1ccc(NC(=O)Nc2cccc3ccccc23)cc1 | 0.089 | 1.43 | 
Nc1ccc(S(N)(=O)=O)cc1Cl | 0.097 |  | 
NS(=O)(=O)c1ccc(CCO)cc1 | 0.048 |  | 
Nc1ccc(S(=O)(=O)NCc2ccc(S(N)(=O)=O)cc2)cc1 | 0.108 |  | 

Structure (SMILES) | Ki (Carbonic anhydrase [1]; read-out: Ki) [µM] | Ki (Carbonic anhydrase [2]) [µM] | other results
Cc1cc(C)cc(NC(=O)Nc2ccc(NS(N)(=O)=O)cc2)c1 | 0.0085 | 0.139 | 
NS(=O)(=O)c1nnc(-c2ccccc2Cl)s1 | 0.42 |  | 
NS(=O)(=O)c1ccc(S(=O)(=O)Nc2cccc3c(Cl)c[nH]c23)cc1 | 0.094 |  | 
Nc1ccc(S(=O)(=O)Nc2nnc(S(N)(=O)=O)s2)cc1 | 0.106 |  | 
NS(=O)(=O)Oc1ccc(NC(=O)Nc2ccc(Cl)cc2)cc1 | 0.0094 | 0.505 | 
NS(=O)(=O)Oc1ccc(NC(=O)Nc2cccc(Cl)c2)cc1 | 0.089 | 0.124 | 
Nc1cc(C(F)(F)F)c(S(N)(=O)=O)cc1S(N)(=O)=O | 0.097 |  | 
Nc1ccc(S(N)(=O)=O)cc1F | 0.098 |  | 
NS(=O)(=O)c1ccc(NC(=O)NCCc2ccccc2)cc1 | 0.056 | 0.124 | Ki (Carbonic anhydrase 2): 0.66 µM
NS(=O)(=O)Nc1ccc(NC(=O)Nc2cccc([N+](=O)[O-])c2)cc1 | 0.0041 | 0.109 | 
NS(=O)(=O)c1ccc(NC(=O)NCc2ccccc2)cc1 | 0.081 |  | 
NS(=O)(=O)Nc1ccc(NC(=O)NCCc2ccccc2)cc1 | 0.0151 | 0.13 | 
Nc1ccc(S(N)(=O)=O)cc1I |  |  | Ki (Carbonic anhydrase [1]): 0.128 µM
NS(=O)(=O)Oc1ccc(NC(=O)Nc2c(F)cc(F)cc2Br)cc1 | 0.005 | 0.084 | 
NS(=O)(=O)c1ccc(NC(=O)Nc2cccc([N+](=O)[O-])c2)cc1 | 0.0061 |  | 
Nc1ccc(S(=O)(=O)NCCc2ccc(S(N)(=O)=O)cc2)cc1 | 0.098 |  | 
NS(=O)(=O)Oc1ccc(NC(=O)Nc2ccc([N+](=O)[O-])cc2)cc1 | 0.0064 | 0.106 | 
NS(=O)(=O)Oc1ccc(NC(=O)NCc2ccccc2)cc1 | 0.0084 | 0.137 | Ki (Carbonic anhydrase 2): 0.274 µM
Nc1nccc(Nc2ccc(S(N)(=O)=O)cc2)n1 | 0.083 |  | 
CCCCOc1ccc(NC(=O)Nc2ccc(NS(N)(=O)=O)cc2)cc1 | 0.0139 | 0.135 | 
CCN[C@H]1CN(CCCOC)S(=O)(=O)c2sc(S(N)(=O)=O)cc21 [BRINZOLAMIDE] | 4.35 |  | 
CC(C)c1ccccc1NC(=O)Nc1ccc(NS(N)(=O)=O)cc1 | 0.0338 | 0.055 | 
NS(=O)(=O)c1ccc(NC(=O)Nc2ccc(Cl)cc2)cc1 | 0.007 |  | 
Nc1ccc(S(N)(=O)=O)cc1 [SULFANILAMIDE] | 8.01 |  | 
NS(=O)(=O)Oc1ccc(NC(=O)Nc2ccccc2)cc1 | 0.0096 |  | 
NS(=O)(=O)c1ccc(C(=O)O)cc1 [CARZENIDE] | 0.053 |  | 
Cc1ccc(S(N)(=O)=O)cc1 [P-TOLUENESULFONAMIDE] | 0.846 |  | 
